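Where inhibition never reached the appropriate level, the endpoint shown equals the highest concentration tested. Otherwise, values were interpolated linearly from a five-concentration, 48-hour dose response in 96-well plates. GI50 = concentration required for 50% inhibition of growth.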 Calls of active or inactive are those of the source. No stated cut-off is given here; in the data, active = GI50 up to about 1.1 µM and inactive = higher.
How the values were obtained:
Assay in all cases: DTP human tumour cell line panel, 48 h
786-0 = tested on: 786-0
A549 = tested on: A549
ACHN = tested on: ACHN
CAKI-1 = tested on: CAKI-1
CCRF-CEM = tested on: CCRF-CEM
COLO 205 = tested on: COLO 205
DLD-1 = tested on: DLD-1
DMS-114 = tested on: DMS-114
DMS-273 = tested on: DMS-273
HCT-116 = tested on: HCT-116
HCT-15 = tested on: HCT-15
HL-60 = tested on: HL-60
HOP-18 = tested on: HOP-18
HOP-62 = tested on: HOP-62
HOP-92 = tested on: HOP-92
HT-29 = tested on: HT-29
IGROV-1 = tested on: IGROV-1
K562 = tested on: K562
KM-20L2 = tested on: KM-20L2
KM12 = tested on: KM12
LOX IMVI = tested on: LOX IMVI
LXFL 529 = tested on: LXFL 529
M14 = tested on: M14
M19-MEL = tested on: M19-MEL
MOLT-4 = tested on: MOLT-4
Malme-3M = tested on: Malme-3M
NCI-H226 = tested on: NCI-H226
NCI-H23 = tested on: NCI-H23
NCI-H460 = tested on: NCI-H460
NCI-H522 = tested on: NCI-H522
OVCAR-3 = tested on: OVCAR-3
OVCAR-4 = tested on: OVCAR-4
OVCAR-5 = tested on: OVCAR-5
OVCAR-8 = tested on: OVCAR-8
RPMI-8226 = tested on: RPMI-8226
RXF 393 = tested on: RXF 393
SF-268 = tested on: SF-268
SF-295 = tested on: SF-295
SF-539 = tested on: SF-539
SK-MEL-28 = tested on: SK-MEL-28
SK-MEL-2 = tested on: SK-MEL-2
SK-MEL-5 = tested on: SK-MEL-5
SK-OV-3 = tested on: SK-OV-3
SN12C = tested on: SN12C
SNB-19 = tested on: SNB-19
SNB-75 = tested on: SNB-75
SR = tested on: SR
SW-620 = tested on: SW-620
TK-10 = tested on: TK-10
U-251 = tested on: U-251
UACC-257 = tested on: UACC-257
UACC-62 = tested on: UACC-62
UO-31 = tested on: UO-31
XF498 = tested on: XF498
A498 = tested on: A498
EKVX = tested on: EKVX
SNB-78 = tested on: SNB-78
BT-549 = tested on: BT-549
DU-145 = tested on: DU-145
HCC 2998 = tested on: HCC 2998
Hs-578T = tested on: Hs-578T
MCF7 = tested on: MCF7
MDA-MB-231 = tested on: MDA-MB-231
MDA-MB-435 = tested on: MDA-MB-435
MDA-N = tested on: MDA-N
NCI/ADR-RES = tested on: NCI/ADR-RES
T47D = tested on: T47D

CN(C)CCS/C(=N\c1ccccc1)N1CCCCC1
GI50 (786-0): 16.3 µM (inactive) | GI50 (A549): 91.8 µM (inactive) | GI50 (ACHN): 16.5 µM (inactive) | GI50 (CAKI-1): 47.6 µM (inactive) | GI50 (CCRF-CEM): 23.8 µM (inactive) | GI50 (COLO 205): 15.2 µM (inactive) | GI50 (DLD-1): 17.3 µM (inactive) | GI50 (DMS-114): 13.5 µM (inactive) | GI50 (DMS-273): 16.7 µM (inactive) | GI50 (HCT-116): 19.7 µM (inactive) | GI50 (HCT-15): 16.4 µM | GI50 (HL-60): 11.4 µM (inactive) | GI50 (HOP-18): 17.9 µM (inactive) | GI50 (HOP-62): > 100 µM (inactive) | GI50 (HOP-92): 13.7 µM (inactive) | GI50 (HT-29): 17.9 µM (inactive) | GI50 (IGROV-1): 16 µM (inactive) | GI50 (K562): 28.4 µM (inactive) | GI50 (KM-20L2): 17.2 µM (inactive) | GI50 (KM12): 16.5 µM (inactive) | GI50 (LOX IMVI): 16.3 µM (inactive) | GI50 (LXFL 529): 15.9 µM (inactive) | GI50 (M14): 16.4 µM (inactive) | GI50 (M19-MEL): 17.1 µM (inactive) | GI50 (MOLT-4): 19 µM (inactive) | GI50 (Malme-3M): 18.9 µM (inactive) | GI50 (NCI-H226): 7.41 µM (inactive) | GI50 (NCI-H23): 19.1 µM (inactive) | GI50 (NCI-H460): 17.5 µM (inactive) | GI50 (NCI-H522): 14.7 µM (inactive) | GI50 (OVCAR-3): 16 µM (inactive) | GI50 (OVCAR-4): 19.1 µM (inactive) | GI50 (OVCAR-5): 17.6 µM (inactive) | GI50 (OVCAR-8): 17.5 µM (inactive) | GI50 (RPMI-8226): 22.3 µM (inactive) | GI50 (RXF 393): 18.2 µM (inactive) | GI50 (SF-268): 18.4 µM (inactive) | GI50 (SF-295): 83 µM (inactive) | GI50 (SF-539): 20.2 µM (inactive) | GI50 (SK-MEL-28): 14.8 µM (inactive) | GI50 (SK-MEL-2): 16.5 µM (inactive) | GI50 (SK-MEL-5): 16.1 µM (inactive) | GI50 (SK-OV-3): 75.7 µM (inactive) | GI50 (SN12C): 17.7 µM (inactive) | GI50 (SNB-19): 86.9 µM (inactive) | GI50 (SNB-75): 21.8 µM (inactive) | GI50 (SR): 18.6 µM (inactive) | GI50 (SW-620): 17.8 µM (inactive) | GI50 (TK-10): 18 µM (inactive) | GI50 (U-251): 41.8 µM (inactive) | GI50 (UACC-257): 14.7 µM (inactive) | GI50 (UACC-62): 16 µM (inactive) | GI50 (UO-31): 20.3 µM (inactive) | GI50 (XF498): 16.1 µM (inactive)

Cc1cc(Br)ccc1/N=N/c1c(C)nn(-c2ccccc2)c1-c1ccccc1
GI50 (786-0): 58.3 µM (inactive) | GI50 (A498): > 100 µM (inactive) | GI50 (A549): 81.8 µM (inactive) | GI50 (ACHN): 54.7 µM (inactive) | GI50 (CAKI-1): 71.3 µM (inactive) | GI50 (CCRF-CEM): 21.2 µM (inactive) | GI50 (COLO 205): > 100 µM (inactive) | GI50 (DLD-1): 30.9 µM (inactive) | GI50 (DMS-114): 89.5 µM (inactive) | GI50 (DMS-273): 34.3 µM (inactive) | GI50 (EKVX): > 100 µM (inactive) | GI50 (HCT-116): 9.08 µM (inactive) | GI50 (HCT-15): 9.82 µM | GI50 (HL-60): 5.05 µM (inactive) | GI50 (HOP-18): > 100 µM (inactive) | GI50 (HOP-62): > 100 µM (inactive) | GI50 (HOP-92): 98.6 µM (inactive) | GI50 (HT-29): 44.5 µM (inactive) | GI50 (IGROV-1): 93.5 µM (inactive) | GI50 (K562): 17 µM (inactive) | GI50 (KM12): 57 µM (inactive) | GI50 (LOX IMVI): 16.6 µM (inactive) | GI50 (LXFL 529): 45.8 µM (inactive) | GI50 (M14): > 100 µM (inactive) | GI50 (M19-MEL): > 100 µM (inactive) | GI50 (MOLT-4): > 100 µM (inactive) | GI50 (Malme-3M): > 100 µM (inactive) | GI50 (NCI-H23): > 100 µM (inactive) | GI50 (NCI-H460): 45.8 µM (inactive) | GI50 (NCI-H522): 51.6 µM (inactive) | GI50 (OVCAR-3): 99.5 µM (inactive) | GI50 (OVCAR-4): > 100 µM (inactive) | GI50 (OVCAR-5): 53.7 µM (inactive) | GI50 (OVCAR-8): > 100 µM (inactive) | GI50 (RPMI-8226): > 100 µM (inactive) | GI50 (RXF 393): 33.3 µM (inactive) | GI50 (SF-268): > 100 µM (inactive) | GI50 (SF-295): 75.2 µM (inactive) | GI50 (SF-539): 92.3 µM (inactive) | GI50 (SK-MEL-28): > 100 µM (inactive) | GI50 (SK-MEL-2): > 100 µM (inactive) | GI50 (SK-MEL-5): 29 µM (inactive) | GI50 (SK-OV-3): > 100 µM (inactive) | GI50 (SN12C): 97.5 µM (inactive) | GI50 (SNB-19): > 100 µM (inactive) | GI50 (SNB-75): > 100 µM (inactive) | GI50 (SNB-78): > 100 µM (inactive) | GI50 (SR): > 100 µM (inactive) | GI50 (SW-620): 81.5 µM (inactive) | GI50 (TK-10): > 100 µM (inactive) | GI50 (U-251): 27 µM (inactive) | GI50 (UACC-257): 49.3 µM (inactive) | GI50 (UACC-62): 27 µM (inactive) | GI50 (UO-31): > 100 µM (inactive) | GI50 (XF498): > 100 µM (inactive)

c1ccc(SCCP(CCP(c2ccccc2)c2ccccc2)c2ccccc2)cc1 (stereo not given)
GI50 (786-0): 4.57 µM (inactive) | GI50 (A549): 6.17 µM (inactive) | GI50 (ACHN): 5.02 µM (inactive) | GI50 (BT-549): 6.81 µM (inactive) | GI50 (CAKI-1): 7.26 µM (inactive) | GI50 (CCRF-CEM): 8.3 µM (inactive) | GI50 (COLO 205): 8.77 µM (inactive) | GI50 (DLD-1): 22 µM (inactive) | GI50 (DMS-114): 10.2 µM (inactive) | GI50 (DMS-273): 1.73 µM (inactive) | GI50 (DU-145): 3.41 µM (inactive) | GI50 (EKVX): 9.02 µM (inactive) | GI50 (HCC 2998): 12.2 µM (inactive) | GI50 (HCT-116): 1.89 µM (inactive) | GI50 (HCT-15): 17.7 µM | GI50 (HL-60): 2.09 µM (inactive) | GI50 (HOP-18): 2.16 µM (inactive) | GI50 (HOP-62): 8.2 µM (inactive) | GI50 (HOP-92): 2.29 µM (inactive) | GI50 (HT-29): 3.47 µM (inactive) | GI50 (Hs-578T): 4.61 µM (inactive) | GI50 (IGROV-1): 6.34 µM (inactive) | GI50 (K562): 4.21 µM (inactive) | GI50 (KM12): 2.1 µM (inactive) | GI50 (LXFL 529): 3.33 µM (inactive) | GI50 (M14): 10.5 µM (inactive) | GI50 (M19-MEL): 10.7 µM (inactive) | GI50 (MCF7): 14.1 µM (inactive) | GI50 (MDA-MB-231): 6.34 µM (inactive) | GI50 (MDA-MB-435): 11.5 µM (inactive) | GI50 (MDA-N): 7.52 µM (inactive) | GI50 (MOLT-4): 11.4 µM (inactive) | GI50 (Malme-3M): 11.5 µM (inactive) | GI50 (NCI-H226): 23.1 µM (inactive) | GI50 (NCI-H23): 2.95 µM (inactive) | GI50 (NCI-H460): 2.84 µM (inactive) | GI50 (NCI/ADR-RES): 34.4 µM (inactive) | GI50 (OVCAR-3): 3.88 µM (inactive) | GI50 (OVCAR-4): 6.14 µM (inactive) | GI50 (OVCAR-5): 46.6 µM (inactive) | GI50 (OVCAR-8): 3.06 µM (inactive) | GI50 (RPMI-8226): 3.14 µM (inactive) | GI50 (RXF 393): 3.9 µM (inactive) | GI50 (SF-268): > 25.5 µM (inactive) | GI50 (SF-295): 5.46 µM (inactive) | GI50 (SF-539): 34.9 µM (inactive) | GI50 (SK-MEL-28): 21.3 µM (inactive) | GI50 (SK-MEL-2): 3.07 µM (inactive) | GI50 (SK-MEL-5): 14 µM (inactive) | GI50 (SK-OV-3): 6.61 µM (inactive) | GI50 (SN12C): 4.09 µM (inactive) | GI50 (SNB-19): 2.95 µM (inactive) | GI50 (SNB-75): 0.948 µM (active) | GI50 (SNB-78): 2.22 µM (inactive) | GI50 (SW-620): 13.3 µM (inactive) | GI50 (T47D): 6.58 µM (inactive) | GI50 (TK-10): 12.1 µM (inactive) | GI50 (U-251): 1.89 µM (inactive) | GI50 (UACC-257): 11.7 µM (inactive) | GI50 (UO-31): 7.73 µM (inactive) | GI50 (XF498): 2.47 µM (inactive)
